Values of other authors as cited in patent US20210106004A1, “THERMOPLASTIC MATERIALS HAVING BENEFICIAL PROPERTIES AND PROCESSES FOR PROVIDING THE SAME” (QuadSil, Inc., priority 2016, published 2021).

Conditions: background statement

CCCCCCCCCCCCCCCCCC[N+](C)(C)CCC[Si](OC)(OC)OC.[Cl-] [3-(trimethoxysilyl) propyldimethyloctadecyl ammonium chloride]
temperature at which thermal decomposition begins: 125 °C
